In article PMC8692993, “PPARα and PPARγ activation is associated with pleural mesothelioma invasion but therapeutic inhibition is ineffective” (iScience, 2021):

Legend:
[1] = tested on: AE17; assay: MTT cell metabolic activity assay, AE17; type: cell-based, mouse; settings: AE17, 48 h, 0.391-100 μM; effect at higher micromolar concentrations
Method: (§1) Cells were harvested and seeded in 96-flat well plates (Corning) at a density of 5 x 10^4 cells/mL overnight. Media was removed and 100 μL media with GW6471 or GW9662 at indicated concentrations was added to each well. Cell viability and toxicity were measured at 48 h. Cells were incubated with 50 μL of a 2 mg/mL solution of (3-(4,5-dimethyl-thiazole-2-yl)-2,5-[…] tetrazolium (MTT, Sigma-Aldrich) in PBS for 4 h and then exposed to 100 μL dimethyl sulfoxide (DMSO; Sigma-Aldrich). Cell viability was measured by absorption at 570 nm in a microplate spectrophotometer (Spectromax 250 plate reader). Results are shown as relative cell viability.

[2] = Protein binding by rapid equilibrium dialysis, mouse plasma; type: in vitro ADME; settings: corrected from 10% diluted plasma, mean ± SD, n=3
Method: Protein binding was determined via rapid equilibrium dialysis (RED) with incorporation of a pre-saturation step ([Charman et al., 2020]). The pre-incubation process involved RED system being exposed to fresh aqueous solutions of GW6471 (400 nM) for three periods (including one overnight). For the protein binding determination, GW6471 was spiked into the diluted mouse plasma (10% (v/v); in PBS) or DMEM/F-12 media containing 5% dextran-coated charcoal-stripped FCS (at 2000 nM) and dialysed against protein-free PBS (for plasma) or base media (DMEM/F-12) containing GW6471 at 40 nM for 24 h at 37°C under ambient atmosphere on a plate shaker. Concentrations of GW6471 in dialysate and donor samples collected at the end of the dialysis period were determined via LC–MS.
Compound binding was assessed on the basis of the measured concentrations in dialysate and donor samples at the end of the dialysis period.
Based on the post-dialysis measured concentrations in donor (Ctotal_post_dialysis) and dialysate (Cunbound) for each RED unit, the unbound fraction of compound in assay matrix (fu_diluted) was calculated according to Equation 1 below:(Equation 1) fu=Cunbound/Ctotal_post−dialysis
For media, the value for fu calculated according to Equation 1 above was used without further correction. […]

[3] = molecular target: T1, PPARγ (Homo sapiens, UniProt P37231); assay: LanthaScreen TR-FRET binding assay, PPARγ; settings: 2 h incubation, mean of 3 replicates ± SEM
T1 sequence (P37231 238-503 limits assumed): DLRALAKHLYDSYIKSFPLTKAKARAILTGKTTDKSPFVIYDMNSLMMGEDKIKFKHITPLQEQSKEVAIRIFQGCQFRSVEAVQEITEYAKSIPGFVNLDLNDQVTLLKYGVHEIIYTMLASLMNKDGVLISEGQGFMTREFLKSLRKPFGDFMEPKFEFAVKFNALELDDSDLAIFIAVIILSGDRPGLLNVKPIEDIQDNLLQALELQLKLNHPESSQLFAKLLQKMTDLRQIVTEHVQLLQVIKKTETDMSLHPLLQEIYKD
Method: The LanthaScreen™ TR-FRET binding assay was performed following the manufacturer's guidelines (PV4894, Invitrogen) as follows, 20 mM stock solution of the ligand or control in DMSO were serially diluted using 100% DMSO to produce a range of concentrations from 100 μM to 1 pM. The test compound solutions were mixed with the reaction buffer in a 1 (ligand) in 10 (reaction buffer) dilution for a final 2X ligand concentration. This was mixed with the reaction components (glutathione S-transferase (GST)-PPPARγLBD (0.5 nM)/, terbium (Tb)-labelled anti-GST antibody (5 nM) and Fluormone pan-PPAR green (5 nM for PPARγ; 20 nM for PPARα) at room temperature in a ratio of 8 μLl 2X ligand solution: 4 μLl of 4XFluormone: and 4 μLl 4X GST-PPPARγLBD/terbium (Tb)-labelled anti-GST antibody to produce a final reaction mixture volume of 16 μL. The concentration of DMSO in the final reaction mixture was 5%. The reaction mixture was kept at room temperature for 2 h prior to recording the TR-FRET emission spectra using a CLARIOstar Plus microplate reader (BMG Labtech). […] Results are expressed as the ratio of fluorescence intensity at 520 nm (Fluormone emission) and 490 nm (Tb emission). […] For each compound three serial dilutions were prepared and measured separately. The IC50 and SEM values were determined using a sigmoidal dose-response equation with varying slope using GraphPad Prism.

[4] = tested on: AB1; assay: MTT cell metabolic activity assay, AB1; type: cell-based, mouse; settings: AB1, 48 h, 0.391-100 μM; effect at higher micromolar concentrations
Method: as §1

Q: Which “Cell viability (MTT)” value [1] does the source give for CCC(=O)NC[C@H](Cc1ccc(OCCc2nc(-c3ccccc3)oc2C)cc1)N/C(C)=C\C(=O)c1ccc(C(F)(F)F)cc1 [GW6471] here?
A: lowered viability

Q: And the “Fraction unbound (fu)” value [2]?
A: 0.00059 ± 0.00005

Q: And the IC50 [3]?
A: 0.0394 ± 0.0182 µM

Q: And the “Cell viability (MTT)” value [4]?
A: lowered viability
